# Where two headings read alike, the source gives them in different places.
# Key:
# [1] = biological target: T1, human Dopamine D2 receptor (Homo sapiens, UniProt P14416); experiment: Binding affinity at the human dopamine D2 receptor; conditions: Table 3c; read-out: hD2 Ki
# T1 construct: purchased BioSignal, Inc. (Montreal, Canada)
# How it was run: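 D5 receptor binding is run per one prior patent's protocol, while dopamine and α2 adrenergic binding follow another; human D1 and D2 receptors were supplied as expressing cell membranes.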
# [2] = biological target: T2, human Alpha-1a Adrenergic receptor (Homo sapiens, UniProt P35348); experiment: Binding affinity at the human alpha-1A adrenergic receptor
# T2 construct: expressed in transfected cells
# T2 sequence (P35348 1-466): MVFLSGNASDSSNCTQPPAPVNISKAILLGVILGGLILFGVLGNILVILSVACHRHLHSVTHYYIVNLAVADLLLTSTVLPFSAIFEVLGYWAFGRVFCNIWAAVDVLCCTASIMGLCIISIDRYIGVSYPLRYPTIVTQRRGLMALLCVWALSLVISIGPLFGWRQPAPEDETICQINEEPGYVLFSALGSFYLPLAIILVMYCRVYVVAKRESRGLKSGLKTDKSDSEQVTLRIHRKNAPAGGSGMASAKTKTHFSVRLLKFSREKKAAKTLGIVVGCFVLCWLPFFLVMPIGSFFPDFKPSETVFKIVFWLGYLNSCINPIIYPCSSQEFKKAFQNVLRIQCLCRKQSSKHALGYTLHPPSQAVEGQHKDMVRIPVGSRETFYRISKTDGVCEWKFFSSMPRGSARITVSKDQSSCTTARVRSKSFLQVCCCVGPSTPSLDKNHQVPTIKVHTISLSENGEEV
# How it was run: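 Receptor binding read-out throughout; membranes expressing human D1 or D2 receptor were used for those two targets.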
# rat MCH1 receptor = biological target: T3, rat MCH1 receptor (Rattus norvegicus, UniProt P97639); experiment: Binding affinity (Ki) at the rat MCH1 receptor
# T3 construct: expressed in transfected cells
# T3 sequence (P97639 whole entry): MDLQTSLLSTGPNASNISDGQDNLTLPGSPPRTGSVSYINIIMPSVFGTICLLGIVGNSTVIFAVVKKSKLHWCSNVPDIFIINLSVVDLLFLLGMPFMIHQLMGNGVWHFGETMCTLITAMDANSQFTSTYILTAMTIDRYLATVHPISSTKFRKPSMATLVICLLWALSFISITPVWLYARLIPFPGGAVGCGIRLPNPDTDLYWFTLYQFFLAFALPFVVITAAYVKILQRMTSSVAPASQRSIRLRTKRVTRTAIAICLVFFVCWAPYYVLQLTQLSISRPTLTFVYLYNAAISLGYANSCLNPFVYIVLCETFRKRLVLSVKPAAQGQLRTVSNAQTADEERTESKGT
# [3] = biological target: T4, human Histamine H1 receptor (Homo sapiens, UniProt P35367); experiment: Binding affinity at the human histamine H1 receptor
# T4 construct: expressed in transfected cells
# T4 sequence (P35367 whole entry): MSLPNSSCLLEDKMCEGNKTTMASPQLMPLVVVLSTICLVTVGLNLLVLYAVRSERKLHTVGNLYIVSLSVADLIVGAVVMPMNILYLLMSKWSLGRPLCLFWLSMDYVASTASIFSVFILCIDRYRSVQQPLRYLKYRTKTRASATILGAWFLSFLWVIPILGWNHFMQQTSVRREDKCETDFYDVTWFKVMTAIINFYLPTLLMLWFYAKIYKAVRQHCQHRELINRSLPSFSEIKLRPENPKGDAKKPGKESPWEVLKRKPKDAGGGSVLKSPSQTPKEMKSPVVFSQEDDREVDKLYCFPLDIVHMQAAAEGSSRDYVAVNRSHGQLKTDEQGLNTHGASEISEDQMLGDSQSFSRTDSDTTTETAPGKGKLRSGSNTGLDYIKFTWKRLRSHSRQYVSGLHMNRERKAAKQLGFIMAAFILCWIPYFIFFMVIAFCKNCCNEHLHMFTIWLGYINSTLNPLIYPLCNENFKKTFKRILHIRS
# Excerpt: Other receptors: Cell membranes expressing human dopamine D1, D2, D4 and rat D3 receptors were purchased through BioSignal, Inc. (Montreal, Canada). Binding assays using the histamine H1 receptor; dopamine receptors; and α1A, α1B, and α2 adrenergic receptors may be carried out according to the procedures described in U.S. Pat. No. 5,780,485, the disclosure of which is hereby incorporated by reference in its entirety into this application. Binding assays using the dopamine D5 receptor may be carried out according to the procedures described in U.S. Pat. No. 5,882,855, the disclosure of which is hereby incorporated by reference in its entirety into this application. Binding assays for the human α1D adrenergic receptor may be carried out according to the procedures described in U.S. Pat. No. 6,156,518, the disclosure of which is hereby incorporated by reference in its entirety into this application.
# [4] = Table 3c, read-out: hAlpha-1a Ki
# [5] = Examples 38-141, read-out: Ki (nM) rMCH1
# T1 sequence (P14416 whole entry): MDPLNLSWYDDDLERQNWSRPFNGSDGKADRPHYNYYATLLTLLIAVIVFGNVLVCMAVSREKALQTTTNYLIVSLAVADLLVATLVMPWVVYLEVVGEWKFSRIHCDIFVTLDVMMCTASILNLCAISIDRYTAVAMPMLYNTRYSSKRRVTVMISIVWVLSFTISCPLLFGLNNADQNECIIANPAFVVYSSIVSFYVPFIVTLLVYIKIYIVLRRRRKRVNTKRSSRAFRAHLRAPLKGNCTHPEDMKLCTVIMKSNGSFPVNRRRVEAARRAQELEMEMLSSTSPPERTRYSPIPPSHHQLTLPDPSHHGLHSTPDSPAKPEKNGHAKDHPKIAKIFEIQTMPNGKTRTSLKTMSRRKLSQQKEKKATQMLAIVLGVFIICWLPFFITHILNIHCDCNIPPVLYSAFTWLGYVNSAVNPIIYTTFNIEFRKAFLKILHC
Structure (SMILES),Ki [1] [nM],"Ki [2, 4] [nM]",Ki (rat MCH1 receptor; [5]) [nM],"Ki (rat MCH1 receptor; Table 3c, read-out: rMCH1 Ki) [nM]","Ki ([3]; Table 3c, read-out: hH1 Ki) [nM]",Ki (rat MCH1 receptor) [nM],"Ki (rat MCH1 receptor; read-out: rMCH1 Ki, Table 3c) [nM]",Ki [3] [nM],Ki [2] [nM]
CC(C)C(=O)Nc1cccc(C2CCN(CC[C@H](Oc3cccc(Cl)c3)c3ccccc3)CC2)c1 [Example 107],152,33.5,3.1,3.1,130,,,,
CC(C)C(=O)Nc1cccc(C2CCN(CC[C@H](Oc3ccc(Cl)cc3)c3ccccc3)CC2)c1 [Example 108],244,13.2,3.8,3.8,264,,,,
CC(C)C(=O)Nc1cccc(C2CCN(CC[C@H](OC(=O)c3cccc4ccccc34)c3ccccc3)CC2)c1 [Example 125],46.6,232,32.5,32.5,> 50000,,,,
CC(C)C(=O)Nc1cccc(C2CCN(CC[C@H](Oc3ccccc3)c3ccccc3)CC2)c1 [Example 105],471,140,,,,7.1,7.1,39.1,
CCCC(=O)Nc1cccc(C2CCN(CCCNC(=O)C3=C(COC)NC(=O)N[C@@H]3c3ccc(F)c(F)c3)CC2)c1 [Example 45],> 50000,6030,14.7,14.7,4430,,,,
CC(C)C(=O)Nc1cccc(C2CCN(CC[C@@H](O)c3ccccc3)CC2)c1 [Example 113],42000,3210,16.6,16.6,48700,,,,
"COCC(=O)Nc1cccc(C2CCN(CCCNC(=O)N3C(=O)NC(COC)=C(C(=O)OC)[C@@H]3c3ccc(F)c(F)c3)CC2)c1 [Example 39, METHYL (4S)-4-(3,4-DIFLUOROPHENYL)-3-({[3-(4-{3-[(METHOXYACETYL)AMINO]PHENYL}-1-PIPERIDINYL)PROPYL]AMINO}CARBONYL)-6-(METHOXYMETHYL)-2-OXO-1,2,3,4-TETRAHYDRO-5-PYRIMIDINECARBOXYLATE]",25100,25.5,3.33,3.33,5660,,,,
COCC1=C(C(=O)NCCCN2CCC(c3cccc(NC(=O)C(C)C)c3)CC2)[C@@H](c2ccc(F)c(F)c2)NC(=O)N1 [Example 50],19800,10400,13.7,13.7,7470,,,,
CC(C)C(=O)Nc1cccc(C2CCN(CC[C@@H](Oc3ccccc3)c3ccccc3)CC2)c1 [Example 112],435,,,,,22.3,22.3,32.5,55
CC(C)C(=O)Nc1cccc(C2CCN(CCCCc3ccccc3)CC2)c1 [Example 96],7450,12.3,50,50,273,,,,
CC(C)C(=O)Nc1cccc(C2CCN(CCCCN3C(=O)c4ccccc4C3=O)CC2)c1 [Example 94],> 50000,1590,18.2,18.2,6590,,,,
"CCC(=O)Nc1cccc(C2CCN(CCCNC(=O)N3C(=O)NC(COC)=C(C(=O)OC)[C@@H]3c3ccc(F)c(F)c3)CC2)c1 [Example 41, METHYL (4S)-4-(3,4-DIFLUOROPHENYL)-6-(METHOXYMETHYL)-2-OXO-3-{[(3-{4-[3-(PROPIONYLAMINO)PHENYL]-1-PIPERIDINYL)PROPYL)AMINO]CARBONYL}-1,2,3,4-TETRAHYDRO-5-PYRIMIDINECARBOXYLATE]",9610,14.3,0.04,0.04,4540,,,,
CC(=O)Nc1cccc(C2CCN(CCCNC(=O)N3C(=O)NC4=C(C(=O)OC4)C3c3ccc4c(c3)OCO4)CC2)c1 (stereo not shown) [Example 53],3450,2310,50.8,50.8,10400,,,,
COc1ccc(O[C@@H](CCN2CCC(c3cccc(NC(=O)C(C)C)c3)CC2)c2ccccc2)cc1 [Example 106],1080,161,3.9,3.9,304,,,,
CC(C)C(=O)Nc1cccc(C2CCN(Cc3cc(C(F)(F)F)cc(C(F)(F)F)c3)CC2)c1 [Example 103],> 50000,> 50000,52,52,36900,,,,
"COC(=O)C1=C(C)NC(=O)N(C(=O)NCCCN2CCC(c3cccc(NC(C)=O)c3)CC2)[C@H]1c1ccc(F)c(F)c1 [Example 56, METHYL (4S)-3-{[(3-{4[3-(ACETYLAMINO)PHENYL]-1-PIPERIDINYL}PROPYL)AMINO]CARBONYL}-4-(3,4-DIFLUOROPHENYL)-6-METHYL-2-OXO-1,2,3,4-TETRAHYDRO-5-PYRIMIDINECARBOXYLATE]",10400,305,0.26,0.26,7230,,,,
COCC1=C(C(=O)NCCCN2CCC(c3cccc(NC(=O)CC(C)C)c3)CC2)[C@@H](c2ccc(F)c(F)c2)NC(=O)N1 [Example 47],13500,553,34.3,34.3,3250,,,,
CC(=O)c1ccccc1O[C@@H](CCN1CCC(c2cccc(NC(=O)C(C)C)c2)CC1)c1ccccc1 [Example 126],1050,1520,50,50,8000,,,,
CC(C)OC(CCN1CCC(c2cccc(NC(=O)C(C)C)c2)CC1)c1ccccc1 (stereo not shown) [Example 100],8670,704,11.5,11.5,11100,,,,
CC(C)C(=O)Nc1cccc(C2CCN(CC[C@H](Oc3ccccc3F)c3ccccc3)CC2)c1 [Example 127],119,226,6.6,6.6,1710,,,,
CC(C)C(=O)Nc1cccc(C2CCN(CC[C@H](Oc3cc(F)ccc3F)c3ccccc3)CC2)c1 [Example 123],133,511,5.9,5.9,2150,,,,
"COCC1=C(C(=O)OC)[C@H](c2ccc(F)c(F)c2)N(C(=O)NCCCN2CCC(c3cccc(NC(=O)CC(C)(C)C)c3)CC2)C(=O)N1 [Example 40, METHYL (4S)-4-(3,4-DIFLUOROPHENYL)-3-({[3-(4-{3-[(3,3-DIMETHYLBUTANOYL)AMINO]PHENYL}-1-PIPERIDINYL)PROPYL]AMINO}CARBONYL)-6-(METHOXYMETHYL)-2-OXO-1,2,3,4-TETRAHYDRO-5-PYRIMIDINECARBOXYLATE]",2650,8.72,2.72,2.72,7120,,,,
COc1cc(C#N)ccc1O[C@@H](CCN1CCC(c2cccc(NC(=O)C(C)C)c2)CC1)c1ccccc1 [Example 118],319,719,12.8,12.8,25300,,,,

# — US20040038855A1 (priority 1999, published 2004)
